# Key:
# Experiment in all cases: ATP level assay (CellTiter-Glo), percent of control
# Type in all cases: cell-based
# [1] = tested on: PC3 (prostate cancer); conditions: two hour incubation; for activity at 100 µM: 2 h, compound alone, control DMSO, read-out: POC (percent of control) PC3
# [2] = tested on: MDA-MB (breast cancer); conditions: two hour incubation; for activity at 100 µM: 2 h, compound alone, control DMSO, read-out: POC (percent of control) MDA-MB
# [3] = tested on: MCF10A (non-cancerous breast); conditions: two hour incubation; for activity at 100 µM: Homo sapiens, MCF-10A, 2 h, compound alone, control DMSO, read-out: POC (percent of control) MCF10A
# [4] = tested on: HDF (normal cells); conditions: two hour incubation; for activity at 100 µM: 2 h, compound alone, control DMSO, read-out: POC (percent of control) HDF
# [5] = tested on: MCF7 (breast cancer); conditions: two hour incubation; for activity at 100 µM: Homo sapiens, MCF7, 2 h, compound alone, control DMSO, read-out: POC (percent of control) MCF7
# [6] = tested on: BxPC3 (pancreatic cancer); conditions: two hour incubation; for activity at 100 µM: Homo sapiens, BXPC-3, 2 h, compound alone, control DMSO, read-out: POC (percent of control) BxPC3
# [7] = tested on: HeLa (cervical cancer); conditions: two hour incubation; for activity at 100 µM: Homo sapiens, HeLa, 2 h, compound alone, control DMSO, read-out: POC (percent of control) HeLa
# [8] = tested on: SkBr3 (breast cancer); conditions: two hour incubation; for activity at 100 µM: Homo sapiens, SK-BR-3, 2 h, compound alone, control DMSO, read-out: POC (percent of control) SkBr3
# [9] = tested on: NCI-H196 (lung cancer); conditions: two hour incubation; for activity at 100 µM: NCI-H196, 2 h, compound alone, control DMSO, read-out: POC (percent of control) NCI-H196
# [10] = tested on: T47D (breast cancer); conditions: two hour incubation; for activity at 100 µM: Homo sapiens, T47D, 2 h, compound alone, control DMSO, read-out: POC (percent of control) T47D
# [11] = tested on: H293 (kidney cancer); conditions: two hour incubation; for activity at 100 µM: 2 h, compound alone, control DMSO, read-out: POC (percent of control) H293
# [12] = compound 100 uM + 2DG (about 10-20 mM)
# [13] = compound 100 uM + rotenone (approximately 1.25 μM)
Compound,activity at 100 µM [1],"POC (percent of control) PC3 [1, 12]","POC (percent of control) PC3 [1, 13]",activity at 100 µM [2],"POC (percent of control) MDA-MB [2, 12]","POC (percent of control) MDA-MB [2, 13]",activity at 100 µM [3],"POC (percent of control) MCF10A [3, 12]","POC (percent of control) MCF10A [3, 13]",activity at 100 µM [4],"POC (percent of control) HDF [4, 12]","POC (percent of control) HDF [4, 13]",activity at 100 µM [5],"POC (percent of control) MCF7 [5, 12]","POC (percent of control) MCF7 [5, 13]",activity at 100 µM [6],"POC (percent of control) BxPC3 [6, 12]","POC (percent of control) BxPC3 [6, 13]",activity at 100 µM [7],"POC (percent of control) HeLa [7, 12]",further results
"Cc1ccc(S(=O)(=O)NCc2cnccn2)cc1 [Compound 16, 4-methyl-N-(pyrazin-2-ylmethyl)benzenesulfonamide]",109%,113.1% of control,95.1% of control,106%,104.5% of control,92.7% of control,113%,118.9% of control,86.2% of control,94.3%,95.6% of control,98.3% of control,123%,93.3% of control,107.5% of control,103%,95.4% of control,72.7% of control,96.8%,106.8% of control,"POC (percent of control) HeLa [7, 13]: 102.3% of control; activity at 100 µM [8]: 91.9%; POC (percent of control) SkBr3 [8, 12]: 81.4% of control; POC (percent of control) SkBr3 [8, 13]: 104% of control; activity at 100 µM [9]: 110%; POC (percent of control) NCI-H196 [9, 12]: 99.2% of control; POC (percent of control) NCI-H196 [9, 13]: 97.6% of control; activity at 100 µM [10]: 91.1%; POC (percent of control) T47D [10, 12]: 111.6% of control; POC (percent of control) T47D [10, 13]: 99.3% of control; activity at 100 µM [11]: 80.1%; POC (percent of control) H293 [11, 12]: 80.7% of control; POC (percent of control) H293 [11, 13]: 81.6% of control"
"Cc1ccc(S(=O)(=O)NCc2nn(C)c3ccccc23)cc1 [Compound 8, 4-methyl-N-[(1-methyl-1H-indazol-3-yl)methyl]benzenesulfonamide]",109%,87.9% of control,108.3% of control,93.9%,91.7% of control,86.2% of control,94.6%,77.9% of control,94.4% of control,99%,91.3% of control,88.3% of control,140%,86.2% of control,116.7% of control,106%,87.1% of control,93.5% of control,106%,80.8% of control,"POC (percent of control) HeLa [7, 13]: 99.1% of control; activity at 100 µM [8]: 88.8%; POC (percent of control) SkBr3 [8, 12]: 97.1% of control; POC (percent of control) SkBr3 [8, 13]: 103.7% of control; activity at 100 µM [9]: 91.1%; POC (percent of control) NCI-H196 [9, 12]: 99.2% of control; POC (percent of control) NCI-H196 [9, 13]: 95.1% of control; activity at 100 µM [10]: 64.1%; POC (percent of control) T47D [10, 12]: 94.6% of control; POC (percent of control) T47D [10, 13]: 101.2% of control; activity at 100 µM [11]: 112%; POC (percent of control) H293 [11, 12]: 83.5% of control; POC (percent of control) H293 [11, 13]: 87.1% of control"
"O=S(=O)(NCc1c[nH]c2ccccc12)c1ccc(C(F)(F)F)cc1 [Compound 24, N-(1H-indol-3-ylmethyl)-4-(trifluoromethyl)benzenesulfonamide]",54.6%,52.5% of control,47.5% of control,96.4%,41.5% of control,49.7% of control,85.1%,56.8% of control,59.1% of control,57.2%,65.6% of control,95.7% of control,82.9%,55.7% of control,66.5% of control,59%,43.1% of control,38.6% of control,78.9%,80.4% of control,"POC (percent of control) HeLa [7, 13]: 96.1% of control; activity at 100 µM [8]: 93.4%; POC (percent of control) SkBr3 [8, 12]: 66.5% of control; POC (percent of control) SkBr3 [8, 13]: 67.2% of control; activity at 100 µM [9]: 172%; POC (percent of control) NCI-H196 [9, 12]: 54.6% of control; POC (percent of control) NCI-H196 [9, 13]: 73.3% of control; activity at 100 µM [10]: 70.6%; POC (percent of control) T47D [10, 12]: 49.7% of control; POC (percent of control) T47D [10, 13]: 65.5% of control; activity at 100 µM [11]: 62.6%; POC (percent of control) H293 [11, 12]: 42.1% of control; POC (percent of control) H293 [11, 13]: 47.6% of control"

# Reference: patent publication US20230266302A1, “SYNTHESIS AND USE OF N-BENZYL SULFONAMIDES” (THE UNIVERSITY OF TULSA, priority 2020, published 2023)
